# According to US11518742B2 (priority 2020, dated 2022):
# Assays:
# [1] = Solid form characterisation of 5MeODMT benzoate lots (XRPD, DSC, TGA, 1H NMR)
# [2] = test system: Slugs (Arion lusitanicus); assay type: in vivo; settings: Example 8; for Total MP (% body weight): Concentration (w/v) 10%
# Excerpt: The Slug Mucosal Irritation (SMI) assay was initially developed at the Laboratory of Pharmaceutical Technology (UGent) to predict the mucosal irritation potency of pharmaceutical formulations and ingredients. The test utilizes the terrestrial slug Arion lusitanicus. The body wall of the slugs is a mucosal surface composed of different layers.
# The outer single-layered columnar epithelium that contains cells with cilia, cells with micro-villi and mucus secreting cells covers the subepithelial connective tissue. Slugs that are placed on an irritating substance will produce mucus. Additionally tissue damage can be induced which results in the release of proteins and enzymes from the mucosal surface. […] A classification prediction model that distinguishes between irritation (mucus production) and tissue damage (release of proteins and enzymes) has been developed. […] A 5% shampoo dilution or artificial tears were instilled in the eye and the discomfort was scored by the participants on a 5 point scale during several time points up to 30 min after instillation. The same shampoos were tested in the SMI assay using the Stinging, Itching and Burning (SIB) protocol.
# The purpose of this assay was to assess the stinging, itching or burning potential of the test item(s) defined below. Using the objective values obtained for the mucus production the stinging, itching or burning potential of the test item(s) can be estimated by means of the prediction model that is composed of four categories (no, mild, moderate and severe).
# Test System: Slugs (Arion lusitanicus); 3 slugs per treatment group. The parental slugs of Arion lusitanicus collected in local gardens along Gent and Aalter (Belgium) are bred in the laboratory in an acclimatized room (18-20° C.). The slugs are housed in plastic containers and fed with lettuce, cucumber, carrots and commercial dog food.
# Test Design: A single study was performed.
# Slugs weighing between 3 and 6 g were isolated from the cultures two days before the start of an experiment. The body wall was inspected carefully for evidence of macroscopic injuries. […] The slugs were placed in a plastic box lined with paper towel moistened with PBS and were kept at 18-20° C. Daily the body wall of the slugs was wetted with 300 μl PBS using a micropipette.
# An overview of this can be seen in FIG. 4.
# The mucus production was expressed as % of the body weight.
# Based on the endpoint of the SMI assay the stinging, itching or burning potency of the test item(s) was estimated using a classification prediction model.
# The evaluation of the test results was based upon the total amount of mucus production during 3 repeated contact periods with the test item.
# For each slug, the mucus production was expressed in % of the body weight by dividing the weight of the mucus produced during each contact period by the body weight of the slug before the start of that contact period. The total mucus was calculated for each slug and then the mean per treatment group was calculated. The classification prediction model shown in Table 1 was used to classify the compounds.
# [3] = Dynamic Vapour Sorption (DVS); assay type: physicochemical
# Experimental: A modified DVS isotherm of lot 20/45/006-FP (the same crystalline version) was undertaken to examine material behaviour from 60% RH and above. […] This is to obtain in-depth profiling of the material towards humidity at these elevated levels.
# Temperature and humidity are important factors in the processing and storage of pharmaceuticals. DVS provides a versatile and sensitive technique for evaluating the stability of pharmaceutical formulations.
# The solution was clarified into a 500 ml round bottom flask, the round bottom flask was rotated in an acetone/dry ice bath to freeze the solution in a thin layer around the flask. The ice was sublimed in vacuo at ambient temperature affording a fluffy white solid. The solid was removed from the round bottom flask and transferred to the DVS instrument. During this transfer, the solid collapsed to a sticky gum.
# The sample was examined by DVS from 40% RH and cycled between 0% RH and 90% RH twice.
# XRPD was collected on a portion of the sample post-lyophoilisation and post-DVS examination.
# ovine nasal epithelium = test: Permeation through ovine nasal epithelium; assay type: in vitro ADME; settings: for Cumulative amount (μg/cm^2): […] dosing solution in water, mean, n=5; for Permeation compared with the hydrochloride salt: across ovine nasal epithelium
# Excerpt: The use of ovine nasal epithelium to study nasal drug absorption is a technique which is well known to the person skilled in the art.
# [4] = Controlled cooling crystallisation: solubility in minimal solvent at 50 °C; assay type: physicochemical; settings: 50° C.
# Experimental: (detailed in the Table below). The solutions were clarified through a 0.45 μm Teflon syringe filter into pre-heated crystallisation tubes and cooled from 50° C. to −10° C. over 60 hours (1° C. Hr-1 cooling rate) and held at −10° C. for 50 hours (no agitation).
# Solutions were clarified into crystallisation tubes at 50° C. and were cooled to −10° C. at a rate of 10° C.·hr-1, then equilibrated at −10° C. for 12 hours, then agitated at −10° C. at 400 rpm for 30 minutes which afforded a mobile suspension for all samples except Sample I which remained a solution. Further equilibration with agitation at −10° C. at 400 rpm for 3 hours afforded a thin suspension. All samples were isolated via isolute cartridge and air dried for 5 minutes before characterisation.
# [5] = Stability of solid forms (Patterns A, B, C) open to atmosphere and in vacuo at 50 °C, by XRPD; assay type: physicochemical
# Experimental: XRPD was performed regularly. DSC and 1H NMR spectroscopy were performed on samples where significant differences to the diffraction patterns were observed.
# [6] = Generation of amorphous 5MeODMT benzoate and conversion on standing (XRPD, DSC); assay type: physicochemical; settings: on standing / all conditions studied
# Experimental: The flask was transferred to a vacuum and equilibrated to ambient temperature affording a fluffy white solid, 21-01-051 C.
# The solid transformed into gum over ca. 1 hour. The sample was analysed immediately and after 20 hours held in a sealed container.
structure (smiles),measurement,setting,value
COc1ccc2[nH]cc(CCN(C)C)c2c1.O=C(O)c1ccccc1,Crystalline character,[1]; predominantly Pattern E lots,Pattern E
"COc1ccc2[nH]cc(CCN(C)C)c2c1.Cl [5MeODMT HCl, 5MeODMT hydrochloride]",Irritation score on SMI testing,[2],moderate
same,Total MP (% body weight),[2],10.27 % body weight
same,State of material upon completion of the DVS cycle,[3]; lot 20/20/126-FP,completed deliquesced
same,Moisture uptake,"[3]; lot 20/20/126-FP, 0-70% RH",less than 0.3 % w/w
same,Moisture uptake,"[3]; lot 20/20/126-FP, 70-80% RH, first sorption cycle",Approximately 23 % w/w
same,Retained mass above the minimum mass recorded at 0% RH,"[3]; lot 20/20/126-FP, subsequent cycles",6-9 % w/w
same,Further moisture uptake,"[3]; lot 20/20/126-FP, up to and when held at 90% RH",20 % w/w
same,Moisture increase,"[3]; lot 20/45/006-FP, 70-75% RH",ca. 0.46 % w/w
same,Moisture uptake,"[3]; lot 20/45/006-FP, 75-80% RH",ca. 7%
same,Moisture uptake,"[3]; lot 20/45/006-FP, 80-85% RH",ca. 40%
same,State of material post DVS analysis,"[3]; lot 20/45/006-FP, likely above 80% RH",Complete deliquescence
same,Cumulative amount (μg/cm^2),ovine nasal epithelium; Time 0.0 min,0.00 μg/cm^2
same,Cumulative amount (μg/cm^2),ovine nasal epithelium; Time 10.0 min,0.33 μg/cm^2
same,Cumulative amount (μg/cm^2),ovine nasal epithelium; Time 20.0 min,3.30 μg/cm^2
same,Cumulative amount (μg/cm^2),ovine nasal epithelium; Time 30.0 min,8.26 μg/cm^2
same,Cumulative amount (μg/cm^2),ovine nasal epithelium; Time 40.0 min,13.33 μg/cm^2
same,Cumulative amount (μg/cm^2),ovine nasal epithelium; Time 50.0 min,18.77 μg/cm^2
same,Cumulative amount (μg/cm^2),ovine nasal epithelium; Time 60.0 min,23.43 μg/cm^2
same,Cumulative amount (μg/cm^2),ovine nasal epithelium; Time 75.0 min,29.52 μg/cm^2
COc1ccc2[nH]cc(CCN(C)C)c2c1.O=C(O)c1ccccc1 [5MeODMT benzoate 21-01-064 A],Crystalline character,[1]; predominantly Pattern C lots,Pattern C
COc1ccc2[nH]cc(CCN(C)C)c2c1.O=C(O)c1ccccc1 [5MeODMT benzoate 21-01-064 B],Crystalline character,[1]; predominantly Pattern C lots,Pattern C
COc1ccc2[nH]cc(CCN(C)C)c2c1.O=C(O)c1ccccc1 [5MeODMT benzoate 21-01-064 C],Crystalline character,[1]; predominantly Pattern E lots,Pattern E
COc1ccc2[nH]cc(CCN(C)C)c2c1.O=C(O)c1ccccc1 [5MeODMT benzoate 21-01-064 D],Crystalline character,[1]; predominantly Pattern E lots,Pattern E
COc1ccc2[nH]cc(CCN(C)C)c2c1.O=C(O)c1ccccc1 [5MeODMT benzoate 21-01-064 E (air dried 4 hours)],Crystalline character,[1]; predominantly Pattern D lots,Pattern D
COc1ccc2[nH]cc(CCN(C)C)c2c1.O=C(O)c1ccccc1 [5MeODMT benzoate 21-01-064 E],Crystalline character,[1]; predominantly Pattern D lots,Pattern D
COc1ccc2[nH]cc(CCN(C)C)c2c1.O=C(O)c1ccccc1 [5MeODMT benzoate 21-01-064 F],Crystalline character,[1]; predominantly Pattern D lots,Pattern D
COc1ccc2[nH]cc(CCN(C)C)c2c1.O=C(O)c1ccccc1 [5MeODMT benzoate],Irritation score on SMI testing,[2],mild
same,Total MP (% body weight),[2],7.38 % body weight
same,Form/version modification on exposure to variable humidity,[3],no evidence of form/version modification
same,Stability by DVS profile compared with the hydrochloride salt,[3],significantly higher
same,Maximum water uptake/loss,[3]; from 0 to 90% humidity,~0.20%
same,Cumulative amount (μg/cm^2),ovine nasal epithelium; Time 0.0 min,0.00 μg/cm^2
same,Cumulative amount (μg/cm^2),ovine nasal epithelium; Time 10.0 min,0.20 μg/cm^2
same,Cumulative amount (μg/cm^2),ovine nasal epithelium; Time 20.0 min,3.46 μg/cm^2
same,Cumulative amount (μg/cm^2),ovine nasal epithelium; Time 30.0 min,9.30 μg/cm^2
same,Cumulative amount (μg/cm^2),ovine nasal epithelium; Time 40.0 min,15.46 μg/cm^2
same,Cumulative amount (μg/cm^2),ovine nasal epithelium; Time 50.0 min,21.51 μg/cm^2
same,Cumulative amount (μg/cm^2),ovine nasal epithelium; Time 60.0 min,27.30 μg/cm^2
same,Cumulative amount (μg/cm^2),ovine nasal epithelium; Time 75.0 min,33.34 μg/cm^2
same,Cumulative amount (μg/cm^2),ovine nasal epithelium; Time 90.0 min,39.77 μg/cm^2
same,Permeation compared with the hydrochloride salt,ovine nasal epithelium; listed as 5MeODMT benzoate salt,higher permeation
same,Permeation compared with the hydrochloride salt,ovine nasal epithelium; listed as benzoate salt,higher permeation across the epithelium
same,Permeation compared with the hydrochloride salt,ovine nasal epithelium; listed as benzoate salt of 5MeODMT,higher permeation
same,Solubility (mg · mL^1),[4]; 2-MeTHF,31.25 mg · mL^1
same,Solubility (mg · mL^1),[4]; 3-methyl-1-butanol,31.25 mg · mL^1
same,Solubility (mg · mL^1),[4]; Acetone,62.5 mg · mL^1
same,Solubility (mg · mL^1),[4]; Chlorobenzene,12.5 mg · mL^1
same,Solubility (mg · mL^1),[4]; IPA,42 mg · mL^1
same,Solubility (mg · mL^1),[4]; MEK,62.5 mg · mL^1
same,Solubility (mg · mL^1),[4]; MeCN,50 mg · mL^1
same,Solubility (mg · mL^1),[4]; MeOH,250 mg · mL^1
same,Solubility (mg · mL^1),[4]; MeOH:TBME (1:1),125 mg · mL^1
same,Solubility (mg · mL^1),[4]; Nitromethane,125 mg · mL^1
same,Solubility (mg · mL^1),[4]; THF,83 mg · mL^1
same,Solubility (mg · mL^1),[4]; iPrOAc,12.5 mg · mL^1
"COc1ccc2[nH]cc(CCN(C)C)c2c1.O=C(O)c1ccccc1 [21-01-071 C1, Pattern C]","XRPD pattern throughout drying, Day 2","[5]; In vacuo at 50° C., Day 2",B + A
same,"XRPD pattern throughout drying, Day 3","[5]; In vacuo at 50° C., Day 3",A + B
same,"XRPD pattern throughout drying, Day 1","[5]; Open to atmosphere at 20 ± 2° C., Day 1",C + B
same,"XRPD pattern throughout drying, Day 4","[5]; Open to atmosphere at 20 ± 2° C., Day 4",C + B
same,"XRPD pattern throughout drying, Day 6","[5]; Open to atmosphere at 20 ± 2° C., Day 6",C + B
same,"XRPD pattern throughout drying, Day 8","[5]; Open to atmosphere at 20 ± 2° C., Day 8",C + B
same,"XRPD pattern throughout drying, Day 12","[5]; Open to atmosphere at 20 ± 2° C., Day 12",C + B
COc1ccc2[nH]cc(CCN(C)C)c2c1.O=C(O)c1ccccc1 [Amorphous 5MeODMT benzoate],Solid form after DVS examination (XRPD),"[3]; amorphous input, after DVS at 90% RH",concordant with Pattern A
same,Initial weight reduction,"[3]; amorphous lot 21-01-078, first desorption cycle",ca. 1.4%
same,Weight increase,"[3]; amorphous lot 21-01-078, second sorption, between 50% RH and 90% RH",0.2%
same,Weight loss,"[3]; amorphous, DVS examination",ca. 2%
same,Stability of the amorphous form,[6],unstable and undergoes transformation to Pattern A form under all conditions studied
same,Stability of the amorphous form,[6]; listed as amorphous 5MeODMT benzoate,will convert to Pattern A form material on standing
COc1ccc2[nH]cc(CCN(C)C)c2c1.O=C(O)c1ccccc1 [Pattern B form],Solid form stability,"[5]; open to atmosphere at ca. 20° C., up to 12 days",stable
